Measured values from patent publication US7157430B2, “(Substituted)acyl dipeptidyl inhibitors of the ICE/CED-3 family of cysteine proteases” (Idun Pharmaceuticals, Inc., priority 1998, dated 2007).

Key:
Format in all cases: biochemical
Conditions in all cases: continuous assay 60 min, reaction initiated by adding enzyme
mICE = target: T1, mICE (Mus musculus, UniProt P29452); experiment: Dissociation constant Ki and irreversible rate constant k3 for irreversible inhibitors, ICE
T1 sequence (P29452 123-296 limits assumed): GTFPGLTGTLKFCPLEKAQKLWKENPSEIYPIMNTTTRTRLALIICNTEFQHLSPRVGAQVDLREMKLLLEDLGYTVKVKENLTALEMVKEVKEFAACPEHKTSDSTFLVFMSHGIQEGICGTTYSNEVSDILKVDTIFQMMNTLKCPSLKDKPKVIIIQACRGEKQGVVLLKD
T1 sequence (P29452 315-402 limits assumed): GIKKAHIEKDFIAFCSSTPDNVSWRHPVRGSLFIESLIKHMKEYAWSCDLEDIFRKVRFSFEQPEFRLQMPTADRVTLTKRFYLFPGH
From the text: (§1) For the irreversible inhibition of a ICE/ced-3 Family Protease enzyme with a competitive irreversible inhibitor; using the model represented by the following formulas: […]
(§2) The product formation at time t may be expressed as:
(§3) [formula] where E, I, EI and E-I denote the active enzyme, inhibitor, non-covalent enzyme-inhibitor complex and covalent enzyme-inhibitor adduct, respectively. The Ki value is the overall dissociation constant of the reversible binding steps, and k3 is the irreversible rate constant. The [S] and Ks values are the substate concentration and dissociation constant of the substrate bound to the enzyme, respectively. [E]^T is the total enzyme concentration.
(§4) The above equations were used to determine the Ki and k3 values of a given inhibitor bound to a ICE/ced-3 family protease. Thus, a continuous assay was run for sixty minutes at various concentrations of the inhibitor and the substrate. The assay was formulated essentially the same as described above for generating the data in Table 1, except that the reaction was initiated by adding the enzyme to the substrate-inhibitor mixture. The Ki and k3 values were obtained by simulating the product AMC formation as a function of time according to Equation 1.
(§5) The reference compound for this assay was Cbz-ValAlaAsp-CH2F and the values are denoted in Table 2 as “Reference”. The Ki values in Table 2 are in micromolar (μM). The k3/Ki values are in moles^−1 seconds^−1 (M^−1s^−1).

CPP32 = target: T2, CPP32 (Homo sapiens, UniProt P42574); experiment: Dissociation constant Ki and irreversible rate constant k3 for irreversible inhibitors, CPP32
T2 sequence (P42574 29-175 limits assumed): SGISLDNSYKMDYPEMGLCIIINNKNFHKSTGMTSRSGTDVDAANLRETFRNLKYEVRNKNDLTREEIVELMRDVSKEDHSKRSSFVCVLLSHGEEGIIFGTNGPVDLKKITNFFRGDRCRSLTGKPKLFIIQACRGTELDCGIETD
T2 sequence (P42574 176-277 limits assumed): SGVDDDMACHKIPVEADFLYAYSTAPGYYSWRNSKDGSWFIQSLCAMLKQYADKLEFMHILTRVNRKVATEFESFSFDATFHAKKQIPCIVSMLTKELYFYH
From the text: as §1, §2, §3, §4, §5

MCH-2 = target: T3, MCH-2 (Homo sapiens, UniProt P55212); experiment: Dissociation constant Ki and irreversible rate constant k3 for irreversible inhibitors, Mch2
T3 sequence (P55212 24-179 limits assumed): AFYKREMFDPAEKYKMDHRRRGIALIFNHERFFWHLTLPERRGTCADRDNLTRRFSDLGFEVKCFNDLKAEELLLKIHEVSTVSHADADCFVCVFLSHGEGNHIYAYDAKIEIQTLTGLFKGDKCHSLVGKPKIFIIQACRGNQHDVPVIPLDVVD
T3 sequence (P55212 194-293 limits assumed): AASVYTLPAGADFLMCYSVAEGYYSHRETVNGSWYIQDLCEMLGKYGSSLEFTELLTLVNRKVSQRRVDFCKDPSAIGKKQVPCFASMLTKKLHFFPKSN
From the text: as §1, §2, §3, §4, §5

MCH-5 = MCH-5 (Homo sapiens, UniProt Q14790); experiment: Dissociation constant Ki and irreversible rate constant k3 for irreversible inhibitors, Mch5
From the text: as §1, §2, §3, §4, §5

Chain of MCH-5 (Q14790 217-374 limits assumed, species assumed): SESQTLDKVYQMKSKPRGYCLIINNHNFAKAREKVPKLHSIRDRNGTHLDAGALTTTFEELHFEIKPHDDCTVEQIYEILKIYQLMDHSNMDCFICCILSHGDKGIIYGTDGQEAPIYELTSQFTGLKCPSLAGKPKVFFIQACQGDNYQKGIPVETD
Chain of MCH-5 (Q14790 385-479 limits assumed, species assumed): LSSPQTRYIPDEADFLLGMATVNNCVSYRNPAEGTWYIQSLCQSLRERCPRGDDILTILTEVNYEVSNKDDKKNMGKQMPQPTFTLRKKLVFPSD

Row | Ki (mICE) | mICE k3/Ki (mICE) | CPP32 k3/Ki (CPP32) | Ki (CPP32) | Ki (MCH-2) | MCH-2 k3/Ki (MCH-2) | Ki (MCH-5) | MCH-5 k3/Ki (MCH-5) | Compound
1 | 246 nM | 33,200 M^−1s^−1 | 41,300 M^−1s^−1 | 186 nM | 39 nM | 59,400 M^−1s^−1 | 56 nM | 20,400 M^−1s^−1 | CC(C)[C@H](NC(=O)CCOc1cccc2ccccc12)C(=O)NC(CC(=O)O)C(=O)CF (mixture of isomers) [Example 55]
2 | 120 nM | 37,400 M^−1s^−1 | 177,000 M^−1s^−1 | 42 nM | 30 nM | 91,000 M^−1s^−1 | 66 nM | 15,900 M^−1s^−1 | CC(C)C[C@H](NC(=O)COc1ccccc1-c1ccccc1)C(=O)NC(CC(=O)O)C(=O)CF (mixture of isomers) [Example 57, (3RS)-3-[N-((2-Phenylphenoxy)Acetyl)Leucinyl]Amino-5-Fluoro-4-Oxopentanoic Acid]
3 | 373 nM | 33,500 M^−1s^−1 | 8,440 M^−1s^−1 | 758 nM |  |  | 467 nM | 5,780 M^−1s^−1 | O=C(O)CC(NC(=O)[C@@H]1Cc2ccccc2CN1C(=O)COc1cccc2ccccc12)C(=O)CF (mixture of isomers) [Example 60]
4 | 53 nM | 129,000 M^−1s^−1 | 207,000 M^−1s^−1 | 79 nM | 38 nM | 36,800 M^−1s^−1 | 40 nM | 71,700 M^−1s^−1 | CC(C)[C@H](NC(=O)COc1cccc2ccccc12)C(=O)NC(CC(=O)O)C(=O)CF (mixture of isomers) [Example 53, (3RS)-3-[N-((1-Naphthyloxy)Acetyl)Valinyl]Amino-5-Fluoro-4-Oxopentanoic Acid]
5 | 148 nM | 93,200 M^−1s^−1 | 28,300 M^−1s^−1 | 360 nM |  |  | 217 nM | 10,100 M^−1s^−1 | O=C(O)CC(NC(=O)[C@@H]1Cc2ccccc2N1C(=O)COc1cccc2ccccc12)C(=O)CF (stereo partly drawn) [Example 61, (2′S,3RS)-3-[N-((1-Naphthyloxy)Acetyl)Indoline-2′-Carbonyl]Amino-5-Fluoro-4-Oxopentanoic Acid]
6 | 79 nM | 52,100 M^−1s^−1 | 725,000 M^−1s^−1 | 12 nM | 12 nM | 56,900 M^−1s^−1 | 12 nM | 17,000 M^−1s^−1 | CC(C)[C@H](NC(=O)COc1cccc2ccccc12)C(=O)N[C@@H](CC(=O)O)C(=O)COC(=O)c1c(Cl)cccc1Cl [Example 63]
7 | 262 nM | 3,630 M^−1s^−1 | 19,200 M^−1s^−1 | 62 nM | 153 nM | 2,400 M^−1s^−1 | 235 nM | 4,260 M^−1s^−1 | CC(C)[C@H](NC(=O)COc1cccc2ccccc12)C(=O)N[C@@H](CC(=O)O)C(=O)COc1ccccc1 [Example 64]
8 | 305 nM | 6,020 M^−1s^−1 | 26,800 M^−1s^−1 | 102 nM | 336 nM | 0 M⁻¹ s⁻¹ | 354 nM | 230 M⁻¹ s⁻¹ | CC(C)[C@H](NC(=O)COc1cccc2ccccc12)C(=O)N[C@@H](CC(=O)O)C(=O)COc1ccccc1F [Example 65]
9 | 355 nM | 14,800 M^−1s^−1 | 28,800 M^−1s^−1 | 110 nM | 383 nM | 1,610 M^−1s^−1 | 821 nM | 200 M⁻¹ s⁻¹ | CC(C)[C@H](NC(=O)COc1cccc2ccccc12)C(=O)N[C@@H](CC(=O)O)C(=O)COc1cccc(F)c1F [Example 68]

More lines, now with the values behind:

Row | Compound | Ki (mICE) | mICE k3/Ki (mICE) | CPP32 k3/Ki (CPP32) | Ki (CPP32) | Ki (MCH-2) | MCH-2 k3/Ki (MCH-2) | Ki (MCH-5) | MCH-5 k3/Ki (MCH-5)
10 | CC(C)[C@H](NC(=O)COc1ccc2ccccc2c1)C(=O)NC(CC(=O)O)C(=O)CF (mixture of isomers) [Example 54] | 1090 nM | 8,280 M^−1s^−1 | 59,300 M^−1s^−1 | 209 nM | 57 nM | 64,400 M^−1s^−1 | 59 nM | 32,300 M^−1s^−1
11 | CC(C)C(NC(=O)COc1ccccc1-c1ccccc1)C(=O)NC(CC(=O)O)C(=O)CF (stereo not shown) [Example 56] | 324 nM | 15,400 M^−1s^−1 | 105,000 M^−1s^−1 | 138 nM | 53 nM | 50,000 M^−1s^−1 | 85 nM | 12,800 M^−1s^−1
12 | O=C(O)CC(NC(=O)[C@@H]1CCCCN1C(=O)COc1cccc2ccccc12)C(=O)CF (stereo partly shown) [Example 59] | 184 nM | 46,300 M^−1s^−1 | 14,400 M^−1s^−1 | 942 nM | 71 nM | 10,100 M^−1s^−1 | 90 nM | 17,600 M^−1s^−1
13 | CC(C)[C@H](NC(=O)COc1cccc2ccccc12)C(=O)N[C@@H](CC(=O)O)C(=O)COn1nnc2ccccc2c1=O [Example 62, (3S)-3-[N-((1-Naphthyloxy)Acetyl)Valinyl]Amino-5-(1′,2′,3′-Benzotriazin-4′(3H)-on-3′-yloxy)-4-Oxopentanoic Acid] | 253 nM | 45,400 M^−1s^−1 | 169,000 M^−1s^−1 | 52 nM | 42 nM | 44,000 M^−1s^−1 | 48 nM | 18,200 M^−1s^−1
14 | CC(C)[C@H](NC(=O)COc1cccc2ccccc12)C(=O)N[C@@H](CC(=O)O)C(=O)COc1cccc(F)c1 [Example 66] | 442 nM | 2,700 M^−1s^−1 | 17,800 M^−1s^−1 | 121 nM | 344 nM | 48 M⁻¹ s⁻¹ | 406 nM | 460 M⁻¹ s⁻¹
15 | CC(C)[C@H](NC(=O)COc1cccc2ccccc12)C(=O)N[C@@H](CC(=O)O)C(=O)COc1ccc(F)cc1 [Example 67] | 218 nM | 9,120 M^−1s^−1 | 8,560 M^−1s^−1 | 33 nM | 203 nM | 0 M⁻¹ s⁻¹ | 255 nM | 700 M⁻¹ s⁻¹
16 | CC(C)[C@H](NC(=O)COc1cccc2ccccc12)C(=O)N[C@@H](CC(=O)O)C(=O)COc1ccc(F)cc1F [Example 69] | 615 nM | 8,400 M^−1s^−1 | 21,700 M^−1s^−1 | 92 nM | 951 nM | 0 M⁻¹ s⁻¹ | 1300 nM | 630 M⁻¹ s⁻¹
17 | CC(C)[C@H](NC(=O)COc1cccc2ccccc12)C(=O)N[C@@H](CC(=O)O)C(=O)COc1cc(F)ccc1F [Example 70] | 399 nM | 12,100 M^−1s^−1 | 49,000 M^−1s^−1 | 104 nM | 357 nM | 1,330 M^−1s^−1 | 760 nM | 480 M⁻¹ s⁻¹
18 | CC(C)[C@H](NC(=O)COc1cccc2ccccc12)C(=O)N[C@@H](CC(=O)O)C(=O)COc1c(F)cccc1F [Example 71] | 193 nM | 53,900 M^−1s^−1 | 200,000 M^−1s^−1 | 39 nM | 38 nM | 9,980 M^−1s^−1 | 120 nM | 9,100 M^−1s^−1
19 | CC(C)[C@H](NC(=O)COc1cccc2ccccc12)C(=O)N[C@@H](CC(=O)O)C(=O)COc1ccc(F)c(F)c1 [Example 72] | 718 nM | 1,620 M^−1s^−1 | 6,460 M^−1s^−1 | 90 nM | 1160 nM | 90 M⁻¹ s⁻¹ | 1040 nM | 120 M⁻¹ s⁻¹
